Earlier results on one substance are cited in patent EP4640075A1, “ORAL POUCHED PRODUCT WITH SELF-EMULSIFYING DELIVERY SYSTEM” (Nicoventures Trading Limited, priority 2024, dated 2025).

For this series the following is noted: Values obtained from PubChem or calculated.

As to tocopherol succinate, the “log(P)*” value was 10.2.
